Series [1] has as its target T1, GCH1 (Homo sapiens, UniProt P30793).
T1 construct: The hGCH1 (42-250, N-terminal 6xHis Tag and TEV cleavage site); 6xHis (N); TEV cleavage site (N); made in house; host or cells: E. coli BL21(DE3)
T1 sequence (P30793 42-250): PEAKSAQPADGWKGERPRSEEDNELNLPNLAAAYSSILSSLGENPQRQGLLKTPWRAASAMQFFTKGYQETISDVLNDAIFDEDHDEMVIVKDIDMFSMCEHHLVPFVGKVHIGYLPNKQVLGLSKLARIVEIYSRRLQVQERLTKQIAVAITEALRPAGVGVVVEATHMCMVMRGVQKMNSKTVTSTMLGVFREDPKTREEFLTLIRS
In words: STD NMR assay with active site reporter ligand GTP. It is filed as binding. An excerpt: (§1) Supplemental Figure 6: Detection of product formation and STD NMR assay. A) Enzyme activity assay for GCH1 based on colorimetric detection of H2NTP or 1H-NMR detection of formate. […]
(§2) inhibitor (e.g. BH4). B) STD NMR is capable to detect GTP binding (green). Addition of another active site binder (8-oxo […]
STD NMR enhancement of substrate GTP in the presence of allosteric regulator BH4 (red). This screening assay allows for the identification of allosteric binders. C) Correlation of activity in functional NMR assay and STD NMR enhancement of active site reporter ligand GTP.
(1 picture or pasted object on this page, not shown here)

For series [2], the target named is T1, GCH1. In words: functional assay with 1H-NMR detection of formate. The class given is biochemical. Here is the method: For the functional assay, each NMR sample was prepared with 10 μM GCH1 and 170 μM or 600 μM test compound. The PBS NMR buffer additionally contained 300 μM GTP (Cayman Chemical cat. no. 16060). After a reaction time of 45 min (25 °C), a certain amount of substrate molecules (GTP) has been converted by GCH1 into 7,8-Dihydroneopterin (H2NPT) and the by-product formate (deprotonated formic acid). For product detection, a WATERGATE 1H-NMR spectrum was recorded (128 scans). We used the integrated NMR signal of the formate α-proton at 8.33 ppm as a relative enzyme activity readout. The formate integral of a negative control sample (dimethyl sulfoxide) has been set to 100%. An inhibitory active test compound decreases the GTP turnover and leads to a reduced relative formate signal integral (% inhibition). DAHP was used as a positive control.
as §1, §2
STD NMR enhancement of substrate GTP in the presence of allosteric regulator BH4 (red). This screening assay allows for the identification of allosteric binders. […]

The target of series [3] is T2, GCH1 WT (Homo sapiens, UniProt P30793).
T2 construct: The hGCH1 (42-250, N-terminal 6xHis Tag and TEV cleavage site); 6xHis (N); TEV cleavage site (N); made in house; host or cells: E. coli BL21(DE3)
T2 sequence (P30793 42-250): T1 sequence (P30793 42-250)
The series is described as follows: enzyme kinetics, H2NTP formation at 330 nm, WT GCH1. It is filed as biochemical. Conditions: colorimetric detection of H2NTP. The method, then: (§3) In order to test the role of the key residues H126, D127, E128, R235, and R241 involved in allosteric inhibitor binding and conformational change, various point mutants were prepared and tested for their ability to be stimulated and inhibited by effector molecules in the presence or absence of GFRP. […] Enzyme activity was evaluated using an activity assay measuring the formation of the product H2NTP at 330 nm with increasing GTP concentrations.
(§4) GTPCH-I specific enzyme activity was determined by spectrometric measuring of the concentration of its direct product H2NTP. Synergy H1 (BioTek Instruments) and Gen5 2.01 software were used to evaluate H2NTP concentration and the maximal turnover rate (Vmax) within each measuring interval. H2NTP concentration was measured at 330 nm over a measuring period of 2 h using a measuring interval of 2 min to 4 min at 37 °C. Samples were prepared using 2 μM GTPCH-I, varying concentrations of GTP (1 μM to 2,000 µM) and in the absence or presence of 15 mM phenylalanine, 0.1 mM BH4, or 3 μM GFRP. The assay buffer used was 50 mM Tris/HCl, pH 7.5, 100 mM KCl. The specific enzyme activity (A) was calculated using the path length of 0.15 cm and the extinction coefficient […] = 6,300 M^−1⋅cm^−1 H2NTP. […] All enzymatic data were, at least, measured in triplicate (n = 3).

In another series the target is T3, R241A-GCH1 (Homo sapiens, UniProt P30793, R241A).
T3 construct: The hGCH1 (42-250, N-terminal 6xHis Tag and TEV cleavage site); 6xHis (N); TEV cleavage site (N); made in house; host or cells: E. coli BL21(DE3)
T3 sequence (P30793 42-250 R241A): T1 sequence (P30793 42-250) with R200A
The series is described as follows: enzyme kinetics, H2NTP formation at 330 nm, R241A-GCH1. It is filed as biochemical. Conditions: in the absence and presence of GFRP; 0.1 mM BH4. Here is the method: as §3, §4

A further series deals with T4, R235A-GCH1 (Homo sapiens, UniProt P30793, R235A).
T4 construct: The hGCH1 (42-250, N-terminal 6xHis Tag and TEV cleavage site); 6xHis (N); TEV cleavage site (N); made in house; host or cells: E. coli BL21(DE3)
T4 sequence (P30793 42-250 R235A): T1 sequence (P30793 42-250) with R194A
The series is described as follows: enzyme kinetics, H2NTP formation at 330 nm, R235A-GCH1. It is filed as biochemical. Conditions: in the absence and presence of GFRP; 0.1 mM BH4. Here is the method: as §3, §4

Series [4] addresses T2, GCH1 WT. The series is described as follows: differential scanning fluorimetry (DSF), WT GCH1. Particulars: protein melting point in presence of GTP. It is filed as binding. Here is the method: (§5) The Tm of proteins and protein complexes was determined by DSF using the Thermofluor Bio-Rad CFX384 and the Bio-Rad CFX Manager software. Ten micromolar protein solution was equipped with 5× SYPRO Orange Protein Gel Stain (Invitrogen) reaching a total volume of 10 μL. Effector molecules and GFRP were added in different concentrations to test their influence on thermal stability; 384 well plates were heated up using a temperature ramp from 15 °C to 95 °C in 1 °C/min steps.
(In general: In DSF a fluorescence change marks the thermal transition of the protein.)

For a further series, the target named is T5, GCH1 F122A (Homo sapiens, UniProt P30793, F122A).
T5 construct: The hGCH1 (42-250, N-terminal 6xHis Tag and TEV cleavage site); 6xHis (N); TEV cleavage site (N); made in house; host or cells: E. coli BL21(DE3)
T5 sequence (P30793 42-250 F122A): T1 sequence (P30793 42-250) with F81A
In words: differential scanning fluorimetry (DSF), F122A. It is filed as binding. Here is the method:
as §5

Another series concerns the target T6, GCH1 R235A (Homo sapiens, UniProt P30793, R235A).
T6 construct: The hGCH1 (42-250, N-terminal 6xHis Tag and TEV cleavage site); 6xHis (N); TEV cleavage site (N); made in house; host or cells: E. coli BL21(DE3)
T6 sequence (P30793 42-250 R235A): T1 sequence (P30793 42-250) with R194A
In words: differential scanning fluorimetry (DSF), R235A. It is filed as binding. Here is the method: as §5

Another series concerns the target T7, GCH1 D127A (Homo sapiens, UniProt P30793, D127A).
T7 construct: The hGCH1 (42-250, N-terminal 6xHis Tag and TEV cleavage site); 6xHis (N); TEV cleavage site (N); made in house; host or cells: E. coli BL21(DE3)
T7 sequence (P30793 42-250 D127A): T1 sequence (P30793 42-250) with D86A
The series is described as follows: differential scanning fluorimetry (DSF), D127A. The class given is binding. The method, then:
as §5

Another series deals with T8, GCH1 E128A (Homo sapiens, UniProt P30793, E128A).
T8 construct: The hGCH1 (42-250, N-terminal 6xHis Tag and TEV cleavage site); 6xHis (N); TEV cleavage site (N); made in house; host or cells: E. coli BL21(DE3)
T8 sequence (P30793 42-250 E128A): T1 sequence (P30793 42-250) with E87A
In words: differential scanning fluorimetry (DSF), E128A. It is filed as binding. Conditions: protein melting point in presence of GTP. Here is the method: as §5

In a further series the target is T9, GCH1 H126A (Homo sapiens, UniProt P30793, H126A).
T9 construct: The hGCH1 (42-250, N-terminal 6xHis Tag and TEV cleavage site); 6xHis (N); TEV cleavage site (N); made in house; host or cells: E. coli BL21(DE3)
T9 sequence (P30793 42-250 H126A): T1 sequence (P30793 42-250) with H85A
The series is described as follows: differential scanning fluorimetry (DSF), H126A. It is filed as binding. The method, then: as §5

The target in a further series is T10, GCH1 R241A (Homo sapiens, UniProt P30793, R241A).
T10 construct: The hGCH1 (42-250, N-terminal 6xHis Tag and TEV cleavage site); 6xHis (N); TEV cleavage site (N); made in house; host or cells: E. coli BL21(DE3)
T10 sequence (P30793 42-250 R241A): T1 sequence (P30793 42-250) with R200A
The series is described as follows: differential scanning fluorimetry (DSF), R241A. The class given is binding. Here is the method:
as §5

Substrate in series [5]: Nc1nc2c(ncn2[C@@H]2O[C@H](COP(=O)(O)OP(=O)(O)OP(=O)(O)O)[C@@H](O)[C@H]2O)c(=O)[nH]1
The series is described as follows: enzyme kinetics, H2NTP formation at 330 nm, WT GCH1. It is filed as biochemical, human. Particulars: other: substrate GTP 1-2000 µM, without GFRP, not stimulated/inhibited; pH 7.5; 37.0 °C. The method, then: as §3, §4

Where [6] appears, read: protein melting point in presence of GTP.
Where [7] appears, read: shift of melting point with GTP.

Positions count from the first letter of the chain named.

For `Nc1nc2c([nH]c(=O)n2[C@@H]2O[C@H](COP(=O)(O)OP(=O)(O)OP(=O)(O)O)[C@@H](O)[C@H]2O)c(=O)[nH]1` [8-oxo GTP, 8-oxo-GTP], the “effect on STD NMR signal of GTP (active site competition)” value at GCH1 [1] (addition of another active site binder) is recorded as “loss of the signal”.
Consider `C[C@H](O)[C@H](O)[C@H]1CNc2nc(N)[nH]c(=O)c2N1` [BH4, tetrahydrobiopterin], for which the “formate production in presence of inhibitor” value at GCH1 [2] is on record as “No H2NTP or formate is produced”. In addition, on GCH1 WT [3], the “H2NTP production in presence of inhibitor” value was “No H2NTP or formate is produced”. Besides, the “inhibition of enzyme activity by BH4” value at R241A-GCH1 and on R235A-GCH1 was “cannot be inhibited” in each case. Further, the “effect on STD NMR signal of substrate GTP (allosteric regulator)” value at GCH1 [1] (in the presence of allosteric regulator) was “enhancement”.
Consider `Nc1nc2c(ncn2[C@@H]2O[C@H](COP(=O)(O)OP(=O)(O)OP(=O)(O)O)[C@@H](O)[C@H]2O)c(=O)[nH]1` [GTP, Guanosine triphosphate], for which the “TM + GTP” value on GCH1 WT [4] was 83.2 °C; on GCH1 F122A (setting [6]), 75.2 °C; on GCH1 R235A (setting [6]), 81.2 °C; on GCH1 D127A (setting [6]), 78.0 °C; on GCH1 E128A it was 78.5 °C; on GCH1 H126A (setting [6]), 80.0 °C. In addition, the “TM + GTP” value at GCH1 R241A (setting [6]) is 86.2 °C. The “ΔTM WT+GTP” value at GCH1 F122A (setting [7]) was determined as 4.2 °C; on GCH1 R235A (setting [7]), 11.2 °C; at GCH1 D127A (setting [7]), 5.0 °C; on GCH1 H126A (setting [7]), 6.0 °C; on GCH1 R241A (setting [7]) it was 17.7 °C.

B1: GCH1 (WT) (Homo sapiens) (protein)
chain: T1 sequence (P30793 42-250)
notes: The hGCH1 (42-250, N-terminal 6xHis Tag and TEV cleavage site); 6xHis (N); TEV cleavage site (N); made in house; host or cells: E. coli BL21(DE3)
In general, Km refers to the concentration of substrate that gives half-maximal velocity. On to B1, for which, in series [5], the Km was found to be 106 µM.
